Columns and labels:
[1] = tested on: wild-type C. albicans strain SC5314; test: plate assays, CFU counting and growth curves in minimal media; format: cell-based, Candida albicans; conditions: for fungistatic or fungicidal effect (CFUs vs pre-incubation): 30 µM ebselen, 430 µM LOC14, 170 µM CBR-5884; for fungistatic or fungicidal effect (CFUs vs pre-incubation) / rescue of CFUs by 1 mM ethanolamine: 24 h; for rescue of CFUs by 1 mM ethanolamine: optimized drug concentrations (CBR-5884 ≥170 µM), minimal medium
Protocol: The antifungal effects of ebselen, LOC14 ,and CBR-5884 on live cells were further evaluated by plate assays and growth curves. First, we tried to determine if the inhibitory effects of these compounds were fungistatic or fungicidal. It should be highlighted that in contrast to the MIC assays, the plate assays and growth curve analyses necessitated a greater initial inoculum (OD600 of 0.05 as opposed to 0.00004) for detection. Additionally, a reduced incubation temperature of 30°C instead of 37°C was required to inhibit the hyphal formation, which, in turn, required the adjustment of compound concentrations used. For this, wild-type C. albicans strain SC5314 was grown with varying concentrations of ebselen, LOC14, and CBR-5884 in minimal media at 30°C for 24 h, along with a cho1ΔΔ strain as a control. […] To further determine the optimized inhibitory concentrations and whether the inhibition is fungistatic or fungicidal, wild-type C. abicans SC5314 was then incubated with ebselen, LOC14, and CBR-5884 in a dosage series with 10 µM increments within the inhibition range determined above, and colony forming units (CFUs) were counted after 24 h incubation.
Plate assays and growth curves were conducted in minimal media or minimal media supplemented with 1 mM ethanolamine (ETA). Wild-type SC5314 and cho1ΔΔ strains were grown in YPD overnight and washed three times with H2O before inoculation. The starting OD600 is 0.05 for both plate assays and growth curves. For plate assays, both wild-type and cho1ΔΔ strains were grown in flat-bottom 96-well plates at a final volume of 200 µL, in the presence of different compounds or DMSO as indicated at 30°C. The final DMSO concentration was maintained at 2.5% across all treatments. A Leica inverted microscope was then used to visualize growth after 24 h incubations. In the meantime, cells grown in different compounds were subjected to live cell counting. Cell cultures from flat-bottom 96-well plates after 24 h incubation were diluted 100–10,000 times before plating on the minimal media, and the total colony-forming unit (CFU) was kept within 200 for each plate. A total of six biological replicates were done in each condition.
The growth curves with LOC14 and CBR-5884 treatments were measured from 2 to 30 h with OD600 measurements every 2 h. A final concentration of 170 µM CBR-5884, 430 µM LOC14, and 5 mM serine was added into each group as indicated. To test the stability of CBR-5884, minimal medium supplemented with 170 µM CBR-5884 or equivalent DMSO was agitated for 12 h before the introduction of wildtype C. albicans SC5314 strain, and growth curves were recorded from 0 to 14 h with OD600 measurement every 2 h. To check the resistance of C. albicans in CBR-5884, SC5314 strain was grown in 170 µM CBR-5884 for 12 and 24 h before being diluted in fresh minimal medium supplemented with fresh 170 µM CBR-5884 or equivalent DMSO. The growth curves were recorded from 0 to 14 h with OD600 measurement every 2 h. The final DMSO concentration was maintained at 1.7% across all treatments.

[2] = tested on: C. albicans strains GDH2346, 3153A, TFPY412 and TFPY2307; test: CLSI MIC broth microdilution, additional wild-type strains; format: cell-based, Candida albicans; conditions: RPMI MOPS pH 7.0, 37°C, 48 h
Protocol: Furthermore, there are no current reports on the antifungal effects of LOC14 and CBR-5884. To rule out the possibility that their inhibition is strain-specific, we treated four additional C. albicans wildtype strains—GDH2346 ([54]), 3153A ([55]), and two clinical isolates TFPY412 and TFPY2307—with LOC14 and CBR-5884. Tests were done in RPMI MOPS (pH 7.0) medium at 37°C for 48 h following the CLSI MIC broth microdilution protocol, and a cho1ΔΔ strain was included as a control (Fig. 3E and F).
Minimum inhibitory concentration (MIC) was determined following Clinical & Lab Standards Institute (CLSI) MIC broth microdilution protocol (Licensed to Todd Reynolds, license # Ord-1138682) ([98], [99]). Briefly, stock solutions of different compounds (purchased from MedChemExpress) were prepared at a concentration of 10 mM in DMSO and subsequently diluted as required in the same solvent. Wild-type C. albicans strain SC5314, as well as four additional wild-type strains—GDH2346, 3153A, TFPY412, and TFPY2307, were cultured overnight in YPD medium at 30°C, washed with water three times, and then diluted to a concentration of 2 × 10^3 cells/mL (OD600 = 0.00008) in one of the three media [minimal medium, minimal medium buffered with 50 mM HEPES (pH 7.0) and RPMI MOPS (pH 7.0)]. The cho1ΔΔ strain was also included as a control. […]

[3] = tested on: crude membrane containing Cho1; test: radioactive PS synthase assay on crude membrane containing Cho1; format: biochemical, Candida albicans; conditions: compounds at 1 mM
Protocol: Enzymatic activity of Cho1 in the presence of the compounds was measured using the radioactive PS synthase assay. For purified Cho1, the procedure was fully described in reference ([33]). Briefly, 1–2 μg of purified Cho1 was added to the reaction containing 50 mM Tris-HCl (pH 8.0), 1 mM MnCl2, 0.1% Triton X-100, 0.04% digitonin, 0.1 mM (4.7 mol %), 16:0 CDP-DAG (Avanti, cat# 870510), and 0.5 mM L-serine [spiked with 5% (by volume) L-[^3H]-serine (15 Ci/mmol)] at a total volume of 100 µL, in the presence of 100 µM of each compound or equivalent DMSO solvent. The reaction was conducted at 30°C for 30 min, and [^3H]PS produced in the reaction was measured using a liquid scintillation counter. For crude membrane samples, crude membrane preps from wildtype and cho1ΔΔ strains were collected and assayed as described in reference ([33]) with the exception that 2 mM L-serine [spiked with 5% (by volume) L-[^3H]-serine (15 Ci/mmol)] was used in each reaction. A final concentration of 1 mM of each compound was used for the crude membrane samples.

## CCOC(=O)c1sc(NC(=O)c2ccco2)c(SC#N)c1C [CBR-5884]
[1]
  fungistatic or fungicidal effect (CFUs vs pre-incubation): fungistatic effect
  rescue of CFUs by 1 mM ethanolamine: significantly higher CFUs
[1]; 170 µM CBR-5884, 1 mM ethanolamine
  effect of ethanolamine on growth rate and lag time: significantly increased the growth rate and decreased the lag time
[1]; 170 µM CBR-5884, growth curve 0-30 h
  effect of 5 mM serine on growth inhibition: serine did not help the cells recover
[1]; 170 µM CBR-5884, minimal medium, 30°C
  duration of growth delay: 12 h
[2]
  growth inhibition of four additional wild-type strains: all strains were inhibited
[3]
  PS production in native crude membranes: decreased PS production

## O=c1c2ccccc2[se]n1-c1ccccc1 [Ebselen]
[1]; 30 µM ebselen + 1 mM ETA
  CFU/μL after 24 h incubation with ethanolamine: 0 CFU/μL
[1]
  fungistatic or fungicidal effect (CFUs vs pre-incubation): fungicidal effect
  rescue of CFUs by 1 mM ethanolamine: did not rescue
[3]
  PS production in native crude membranes: decreased PS production

## O=C(C1CC1)N1CCN(Cn2sc3ccccc3c2=O)CC1 [LOC14]
[1]
  fungistatic or fungicidal effect (CFUs vs pre-incubation): fungistatic effect
  rescue of CFUs by 1 mM ethanolamine: did not rescue
[1]; 430 µM LOC14, 0-30 h
  growth curve in presence or absence of ethanolamine: no cells grew
[2]
  growth inhibition of four additional wild-type strains: all strains were inhibited
[3]
  PS production in native crude membranes: decreased PS production

— publication PMC11077991, “The small molecule CBR-5884 inhibits the Candida albicans phosphatidylserine synthase” (mBio, 2024)
